Data published in ChEMBL document CHEMBL1150489, “Increase of the anti-HIV activity of D4T in human T-cell culture by the use of the sate pronucleotide approach” (Bioorg Med Chem Lett, 1995).

Tests used:
[1] = (§1) Tested in vitro for the antiviral activity in PBM cells infected with HIV-1; type: functional, cell-based; conditions: Homo sapiens, PBMC
[2] = test system: MT4; assay: (§2) Tested in vitro for the antiviral activity in MT-4 cells infected with HIV-1; type: functional, Homo sapiens
[3] = test system: CEM-TK(-); assay: (§3) Tested in vitro for the antiviral activity in CEM/TK- cells infected with HIV-1; type: functional, cell-based; conditions: Homo sapiens
[4] = test system: CEM-SS; assay: (§4) Tested in vitro for the antiviral activity in CEM-SS cells infected with HIV-1; type: functional; conditions: Homo sapiens
[5] = test system: CEM-SS; assay: as §4; type: functional, cell-based; conditions: Homo sapiens
[6] = test system: CEM-TK(-); assay: as §3; type: functional; conditions: Homo sapiens
[7] = test system: MT4; assay: as §2; type: functional, cell-based; conditions: Homo sapiens
[8] = as §1; type: functional; conditions: Homo sapiens, PBMC
[9] = test system: MT4; assay: as §2; type: functional; conditions: Homo sapiens
[10] = test system: CEM-TK(-); assay: as §3; type: functional, Homo sapiens
[11] = test system: CEM-SS; assay: as §4; type: functional, Homo sapiens

EC50 [1] [µM] | EC50 [3] [µM] | EC50 [5] [µM] | Compound | Reduction [2] [%] | CC50 [4] [µM] | CC50 [6] [µM] | EC50 [7] [µM] | CC50 [8] [µM] | CC50 [9] [µM] | Reduction [10] [%] | Reduction [11] [%]
0.007 | 0.012 | 0.006 | CC(=O)SCCOP(=O)(OCCSC(C)=O)OCC1C=CC(n2cc(C)c(=O)[nH]c2=O)O1 (stereo not given) | 19 | 68 | 60 | 0.016 | 22 | > 100 |  | 
0.05 | 10 | 0.059 | Cc1cn([C@H]2C=C[C@@H](CO)O2)c(=O)[nH]c1=O [STAVUDINE] | 10 | > 100 | > 100 | 0.28 | 42 | > 100 | 6 | 21
